Converted amounts (≈) assume the structure as drawn.

Data set [1] in a line: in vivo. Conditions: mouse, iv, 10 mg/kg.
Data set [2] in a line: in vivo. Particulars: mouse, po, 10 mg/kg.
Data set [3] in a line: in vivo. Conditions: mouse, iv, 10 mg/kg. This is another data set of the same source.
Data set [4] is described as follows: in vivo. Conditions: mouse, iv, 10 mg/kg. The source holds these as a separate data set.
The nature of data set [5]: in vitro. Particulars: mouse, liver microsomes. In general terms: Liver microsomes are vesicles of endoplasmic reticulum, rich in cytochrome P450 enzymes.
Data set [6] in a line: in vivo. Conditions: mouse, iv, 5 mg/kg.
Data set [7] is described as follows: in vivo. Particulars: mouse, iv, 5 mg/kg. The source holds these as a separate data set.
Data set [8] can be described thus: in vivo. Conditions: mouse, po, 5 mg/kg.
The nature of data set [9]: in vivo. Conditions: mouse, iv, 5 mg/kg. The source holds these as a separate data set.
The conditions of data set [10]: mouse, in vivo, po, 10 mg/kg.
Data set [11] in a line: Metabolic stability in human liver microsomes in presence of glutathione. The format is ADME, Microsome.
Data set [12] can be described thus: Passive permeability in human Caco2 cells. The format is ADME, cell-based. Conditions: caco-2.
Data set [13] can be described thus: in vivo. Conditions: NCr athymic, mouse, plasma, po, 300 mg/kg.
A short description of data set [14]: in vitro. Particulars: human, hepatocytes.
Data set [15] in a line: in vivo. Conditions: rat, po.
Data set [16] is described as follows: Intrinsic clearance in dog hepatocytes at 3 uM assessed per million cells. Format: ADME, cell-based, Canis lupus familiaris, Hepatocyte. Particulars: read-out: CLH.
The nature of data set [17]: Lipophilicity, logD of the compound at pH 7.4 by LC-MS/MS analysis. Format: physicochemical. Conditions: buffer.
A short description of data set [18]: in vivo. Conditions: rat.
The nature of data set [19]: Basicity constant, pKa of the compound by UV metric assay. Format: physicochemical.
A short description of data set [20]: Intrinsic clearance in rat hepatocytes at 3 uM assessed per million cells. Format: ADME, cell-based, Hepatocyte. Conditions: read-out: CLH.
Data set [21] in a line: Solubility of compound in phosphate buffer at pH 6.5. Format: physicochemical.
Data set [22] is described as follows: in vivo. Particulars: rat. The source holds these as a separate data set.
Data set [23] can be described thus: Metabolic stability in human liver microsomes in absence of glutathione. Format: ADME, Microsome.
Data set [24] can be described thus: Free drug level in NCr athymic mouse plasma xenografted with human HT-29 cells at 12.5 to 100 mg/kg, po administered as single dose measured at 24 hrs. Format: ADME, organism-based. Particulars: in vivo, dose 12.5-100 mg/kg. (In xenograft studies the graft and the host belong to different species.)
Data set [25] is described as follows: Solubility of compound in pure water. The format is physicochemical.
Data set [26] can be described thus: in vitro. Conditions: CD-1, mouse, hepatocytes.

As usually defined, the Vd is a proportionality between amount in the body and measured concentration, not a real space. Read a high Vd as extensive tissue distribution. In general, bioavailability refers to dose-corrected exposure relative to a reference, in per cent. High values mean much systemic uptake, low ones little systemic uptake. A word on the half-life: it is the time needed for the level to fall by half in the phase considered. As usually defined, the clearance is the volume of plasma or blood freed of the substance per unit of time. Turning to `CC(C)(O)C#Cc1cnc(Nc2cnc(C#N)cn2)cc1NC[C@@H]1CNCCO1`, the Vd in data set [1] turned out to be 10.4 L/kg. This compound also had a bioavailability in data set [2] of 10%. In [3], this compound showed a half-life of 228 min. Also, the clearance in data set [4] is 138 mL/min/kg.

`N#Cc1cnc(Nc2cc(NC[C@@H]3CNCCO3)c(C3CC3)cn2)cn1` yielded a Vd in data set [1] of 43.9 L/kg. Also, in data set [2], the bioavailability came out at 68%. The compound also had a half-life in data set [3] of 486 min. The same compound gave a clearance in data set [4] of 112 mL/min/kg.

On to `N#Cc1cnc(Nc2cc(NC[C@H]3CNCCO3)c(-c3cccc(F)c3)cn2)cn1`, for which the Vd in data set [1] was 26.8 L/kg. This compound also displayed a bioavailability in data set [2] of 53%. Also, the half-life in data set [3] is 258 min. The clearance in data set [4] is 113 mL/min/kg.

For `COC(=O)c1cnc(Nc2cnc(C#N)cn2)cc1NCCC1CCNCC1`, the metabolised at 0.5 h in data set [5] was 26%. This compound yielded a Vd in data set [6] of 60.5 L/kg. Also, in data set [7], the clearance was 141 mL/min/kg. The compound also showed a bioavailability in data set [8] of 44%. This compound also had a half-life in data set [9] of 660 min.

The logD is the decadic logarithm of the distribution of all forms, ionised or not, between an organic phase and buffer at a given pH. Read a low logD as a more hydrophilic compound. For orientation: pKa means the negative logarithm of the acid dissociation constant. A lower pKa goes with a group that gives up its proton readily. One may read the solubility as the dissolved amount per volume that the medium holds. A lower solubility goes with a poorly soluble substance. Compound `N#Cc1cnc(Nc2cc(NC[C@H]3CNCCO3)c(C(F)(F)F)cn2)cn1` [SRA-737] returned a F in data set [10] of 105%. Also, the Stabilty entry in data set [11] and in data set [23] was “Stable” throughout. In data set [12], the permeability is recorded as 25 10^-6 cm/s. This compound came in with a concentration at 24 h in [13] of 4 µM. In addition, the Vd in data set [1] is 9.25 L/kg; in [18] it was 4.6 L/kg. Besides, the hepatocyte CLint at 3 µM in data set [14] came to 2.72 µL/min/1e6 cells; in data set [16], 55 µL/min/1e6 cells; in [20], 43.4 µL/min/1e6 cells; in data set [26], 25.7 µL/min/1e6 cells. This compound showed a bioavailability in data set [15] of 38%. The logD in [17] worked out at 1.47. The same compound gave a pKa in [19] of 7.87. The compound further gave a half-life in data set [3] of 174 min. Moreover, the clearance in data set [4] is 44.2 mL/min/kg; in data set [22] it was 58.3 mL/min/kg. The solubility in data set [21] was 1500 µg/mL (≈ 3950 µM); in [25], 90 µg/mL (≈ 237 µM). Also, in [24], the “Cp(f)” value was 15 nM.
